# Patent US20010046491A1, “Tumor radiosensitization with mutant thymidine kinase in combination with a prodrug” (priority 2000, published 2001)
# Test system: rat RT2 glioma cells
# Assay: MTT growth/toxicity assay of adenovirus-infected RT2 cells exposed to GCV or ACV
# Type: cell-based
# Conditions: 1-100 microM; for effect of prodrug on cell growth/toxicity (MTT): control AdCMV (empty vector)-infected RT2 cells, 5 days
# Description: FIG. 2. Mutant HSV-TK75 sensitizes rat RT2 glioma cells to GCV and ACV more efficiently than wild type HSV-TK. Rat RT2 cells were infected with AdCMV (empty vector), AdCMV-TK, or AdCMV-TK75. At 2 days postinfection, cells were trypsinized, serially diluted, seeded in microtiter plates, and exposed to various doses of ACV or GCV. After 5 days, the plates were processed for growth/toxicity by MTT assay. (Contessa et al., 1999). Values were normalized to values from cells that were infected but not treated with GCV or ACV.
# RT2 cells (a rat glioma cell line derived from Fischer 344 rats (Wilfong et al. 1973) that form tumors with features typical of human glioblastoma (Mahaley et al, 1977) were cultured in Dulbecco's modified Eagle's medium with 10% fetal bovine serum supplemented with penicillin/strepto-mycin. (Brust et al., 2000). Infected cells were exposed to Zovirax/ACV (manufactured by Glaxo Wellcome, Chapel Hill, N.C.) or GCV (kindly provided by Syntex, Palo Alto, Calif.) added to the medium. Cells were irradiated in medium with a ^60Co γ irradiator (Picker Zonegard V4 M60; Picker Interational, Cleveland, Ohio) set at 1 Gy/minute. Cell viability was determined by the 3-(4,5-dimethylthiazol-2-yl)-2,5-[…] bromide (MTT) assay. (Contessa et al, 1999). Terminal deoxynucleotidyltransferase-mediated deoxyuridine triphosphate nick end labeling assays were carried out with an ApopTag Direct kit from Oncor (Gaithersburg, Md.), according to the manufacturer's instructions, to provide a measurement of apoptosis.
# It was subsequently determined whether infection of RT2 cells with the adenovirus expressing mutant HSV-TK 75 was able to predispose RT2 cells to killing by GCV and ACV more efficiently than cells infected with virus expressing wild type HSV-TK. At 2 days postinfection, infected cells were exposed to increasing concentrations (1-100 microM) of either GCV or ACV. As a control, we used an adenovirus(AdCMV) carrying no transgene.
smiles,measurement,setting,value
"Nc1nc2c(ncn2COCCO)c(=O)[nH]1 [ACV, acyclovir]",effect of prodrug on cell growth/toxicity (MTT),,little to no effect
"Nc1nc(O)c2ncn(COC(CO)CO)c2n1 [GCV, ganciclovir]","cell killing, comparison of prodrugs",AdCMV-TK-infected RT2 cells,more effective than with ACV
same,effect of prodrug on cell growth/toxicity (MTT),,little to no effect
